# From paper PMC6736730 (Biochemistry, 2019)
# Assays:
# msAPAH [1] = target: T1, msAPAH (Marinobacter subterrani, UniProt A0A0J7JFD7); assay: Hydrolysis of acetyllysine substrates; format: biochemical; conditions: acetyllysine (Aly) and MSH2-based peptide substrates; LC-MS assay
# msAPAH [2] = target: T1, msAPAH; assay: Isothermal titration calorimetry; format: binding; conditions: ITC, 25 °C; inhibitor 7 with 5% (v/v) DMSO
# msAPAH [3] = target: T1, msAPAH; assay: Inhibitory activity measurements; format: biochemical
# msAPAH [4] = target: T1, msAPAH; assay: Steady-state kinetics of acetylpolyamine hydrolysis; format: biochemical; conditions: 25° C, pH 7.75, triplicate; N^8-acetylspermidine value at 0 mM KCl
Structure (SMILES),dissociation constant / enthalpogram fit (in words) (msAPAH [2]),IC50 (msAPAH [3]),Km (msAPAH [4]),also measured
CC(=O)NCCCC[C@H](N)C(N)=O [Aly-NH2],–,–,–,catalytic activity for hydrolysis (msAPAH [1]): No significant catalytic activity
"NCCCNCCCCCS [Inhibitor 3, 5-[(3-aminopropyl)amino]pentane-1-thiol]",nanomolar dissociation constant,160 µM,–,–
"NCCCCCC(=O)NO [Inhibitor 4, 6-amino-N-hydroxyhexanamide]",–,410 µM,–,–
"NCCCCCCCC(=O)NO [Inhibitor 5, 8-amino-N-hydroxyoctanamide]",–,380 µM,–,–
"NCCCNCCCCCC(=O)NO [Inhibitor 6, 6-[(3-aminopropyl)amino]-N-hydroxyhexanamide]",micromolar dissociation constants,470 µM,–,–
"CN(C)c1ccc(C(=O)NCCCCCCC(=O)NO)cc1 [Inhibitor 7, reference compound]",could not be fit to binding curves,–,–,–
CC(=O)NCCCCCN [acetylcadaverine],–,–,800 ± 300 µM,–
CC(=O)NCCCCN [acetylputrescine],–,–,44 ± 10 µM,–
CC(=O)NCCCNCCCCNCCCN [acetylspermine],–,–,1300 ± 600 µM,–
